Tested on: 991263-137-R1-J2-PDC complex spheroid viability
Assay: Anticancer human tumor 991263-137-R1-J2-PDC patient-derived colon adenocarcinoma cell line growth inhibition [POLQ]
Details: for IC50: curve of first compound; for viability, T/C: stronger effect = lower value
Method in brief: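 Growth inhibition in 3D: complex spheroids (tumor PDC, HUVEC, MSC) treated with POLQ inhibitor combinations; where Cmax unknown, highest tested concentration 10 microM, except SN-38 at 1 microM.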

[1] = second compound 0.0316 µM, first compound 0.0316 µM
[2] = second compound 0.0316 µM, first compound 0.1 µM
[3] = second compound 0.0316 µM, first compound 0.316 µM
[4] = second compound 0.0316 µM, first compound 1 µM
[5] = second compound 0.0316 µM, first compound 3.16 µM
[6] = second compound 0.0316 µM, first compound 10 µM
[7] = second compound 0.1 µM, first compound 0.0316 µM
[8] = second compound 0.1 µM, first compound 0.1 µM
[9] = second compound 0.1 µM, first compound 0.316 µM
[10] = second compound 0.1 µM, first compound 1 µM
[11] = second compound 0.1 µM, first compound 3.16 µM
[12] = second compound 0.1 µM, first compound 10 µM
[13] = second compound 0.316 µM, first compound 0.0316 µM
[14] = second compound 0.316 µM, first compound 0.1 µM
[15] = second compound 0.316 µM, first compound 0.316 µM
[16] = second compound 0.316 µM, first compound 1 µM
[17] = second compound 0.316 µM, first compound 3.16 µM
[18] = second compound 0.316 µM, first compound 10 µM
[19] = second compound 1 µM, first compound 0.0316 µM
[20] = second compound 1 µM, first compound 0.1 µM
[21] = second compound 1 µM, first compound 0.316 µM
[22] = second compound 1 µM, first compound 1 µM
[23] = second compound 1 µM, first compound 3.16 µM
[24] = second compound 1 µM, first compound 10 µM
[25] = second compound 3.16 µM, first compound 0.0316 µM
[26] = second compound 3.16 µM, first compound 0.1 µM
[27] = second compound 3.16 µM, first compound 0.316 µM
[28] = second compound 3.16 µM, first compound 1 µM
[29] = second compound 3.16 µM, first compound 3.16 µM
[30] = second compound 3.16 µM, first compound 10 µM
[31] = second compound 10 µM, first compound 0.0316 µM
[32] = second compound 10 µM, first compound 0.1 µM
[33] = second compound 10 µM, first compound 0.316 µM
[34] = second compound 10 µM, first compound 1 µM
[35] = second compound 10 µM, first compound 3.16 µM
[36] = second compound 10 µM, first compound 10 µM
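Also: spheroids exposed to compounds for 7 days before readout.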
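For viability, T/C in this document: 100% = DMSO vehicle control viability.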

`COc1cc2cc(C(=O)CCC(=O)O)sc2cc1OC` + Nc1ccc(C#CCN(C(=O)Cc2ncc(C(F)(F)F)cc2C(F)(F)F)c2ccc(F)cc2)nn1 showed an IC50 (second compound 0.0316 µM) of over 10 µM, an IC50 (second compound 0.1 µM) of over 10 µM and an IC50 (second compound 0.316 µM) of over 10 µM. The IC50 (second compound 1 µM) was over 10 µM, the IC50 (second compound 3.16 µM) was over 10 µM and the IC50 (second compound 10 µM) was over 10 µM. It also gave a viability, T/C [1] of 115%, a viability, T/C [2] of 108% and a viability, T/C [3] of 111%. It also gave a viability, T/C [4] of 116%, a viability, T/C [5] of 87.9% and a viability, T/C [6] of 84.8%. It also gave a viability, T/C [7] of 116%, a viability, T/C [8] of 115% and a viability, T/C [9] of 95.8%. The viability, T/C [10] was 98.7%, the viability, T/C [11] was 113% and the viability, T/C [12] was 93.8%. For the same molecule, the viability, T/C [13] was 97.1%, the viability, T/C [14] was 105% and the viability, T/C [15] was 102%. It also gave a viability, T/C [16] of 104%, a viability, T/C [17] of 95% and a viability, T/C [18] of 77.5%. For the same molecule, the viability, T/C [19] was 107%, the viability, T/C [20] was 103% and the viability, T/C [21] was 108%. It also gave a viability, T/C [22] of 96.8%, a viability, T/C [23] of 104% and a viability, T/C [24] of 86.6%. It also gave a viability, T/C [25] of 106%, a viability, T/C [26] of 99.6% and a viability, T/C [27] of 105%. It also gave a viability, T/C [28] of 103%, a viability, T/C [29] of 105% and a viability, T/C [30] of 88.2%. For the same molecule, the viability, T/C [31] was 101%, the viability, T/C [32] was 96.6% and the viability, T/C [33] was 112%. For the same molecule, the viability, T/C [34] was 94.7%, the viability, T/C [35] was 107% and the viability, T/C [36] was 82.1%.
`COc1cc(C2c3cc4c(cc3C(OC3OC5COC(C)OC5C(O)C3O)C3COC(=O)C23)OCO4)cc(OC)c1O` (stereo not drawn) + Cc1cccc(N(C)C(=O)C2C(O)CCN2c2nc(C)cc(C(F)(F)F)c2C#N)c1 showed an IC50 (second compound 0.0316 µM) of over 10 µM, an IC50 (second compound 0.1 µM) of over 10 µM and an IC50 (second compound 0.316 µM) of over 10 µM. The IC50 (second compound 1 µM) was over 10 µM, the IC50 (second compound 3.16 µM) was over 10 µM and the IC50 (second compound 10 µM) was over 10 µM. It also gave a viability, T/C [1] of 115%, a viability, T/C [2] of 99% and a viability, T/C [3] of 87.1%. The viability, T/C [4] was 90.5%, the viability, T/C [5] was 102% and the viability, T/C [6] was 84.7%. For the same molecule, the viability, T/C [7] was 95.2%, the viability, T/C [8] was 103% and the viability, T/C [9] was 75.8%. The viability, T/C [10] was 98.1%, the viability, T/C [11] was 86.3% and the viability, T/C [12] was 73.1%. It also gave a viability, T/C [13] of 104%, a viability, T/C [14] of 102% and a viability, T/C [15] of 109%. The viability, T/C [16] was 95.8%, the viability, T/C [17] was 94.4% and the viability, T/C [18] was 87.2%. The viability, T/C [19] was 104%, the viability, T/C [20] was 109% and the viability, T/C [21] was 105%. It also gave a viability, T/C [22] of 106%, a viability, T/C [23] of 84.8% and a viability, T/C [24] of 85.7%. The viability, T/C [25] was 97.2%, the viability, T/C [26] was 107% and the viability, T/C [27] was 92.3%. For the same molecule, the viability, T/C [28] was 99.2%, the viability, T/C [29] was 102% and the viability, T/C [30] was 76.8%. It also gave a viability, T/C [31] of 117%, a viability, T/C [32] of 96.3% and a viability, T/C [33] of 73.6%. The viability, T/C [34] was 89.1%, the viability, T/C [35] was 84.9% and the viability, T/C [36] was 71.1%.
Molecule `COc1ccc([C@@H](O)c2cc(-c3ncnc4cc(N5CCOCC5)ccc34)c(F)cc2Cl)nn1` + Cc1cccc(N(C)C(=O)C2C(O)CCN2c2nc(C)cc(C(F)(F)F)c2C#N)c1 has an IC50 (second compound 0.0316 µM) of 2.6 µM, an IC50 (second compound 0.1 µM) of 5.78 µM and an IC50 (second compound 0.316 µM) of 5.97 µM. It also gave an IC50 (second compound 1 µM) of 6.2 µM, an IC50 (second compound 3.16 µM) of 5.68 µM and an IC50 (second compound 10 µM) of 3.76 µM. For the same molecule, the viability, T/C [1] was 101%, the viability, T/C [2] was 88.1% and the viability, T/C [3] was 93.3%. It also gave a viability, T/C [4] of 110%, a viability, T/C [5] of 40.1% and a viability, T/C [6] of 27.1%. It also gave a viability, T/C [7] of 116%, a viability, T/C [8] of 104% and a viability, T/C [9] of 98.1%. For the same molecule, the viability, T/C [10] was 88%, the viability, T/C [11] was 76.4% and the viability, T/C [12] was 29.3%. It also gave a viability, T/C [13] of 103%, a viability, T/C [14] of 103% and a viability, T/C [15] of 84.9%. It also gave a viability, T/C [16] of 87.5%, a viability, T/C [17] of 68.9% and a viability, T/C [18] of 34.9%. For the same molecule, the viability, T/C [19] was 99.5%, the viability, T/C [20] was 114% and the viability, T/C [21] was 75.2%. For the same molecule, the viability, T/C [22] was 89%, the viability, T/C [23] was 76.3% and the viability, T/C [24] was 33.1%. The viability, T/C [25] was 97.5%, the viability, T/C [26] was 92.8% and the viability, T/C [27] was 77.9%. For the same molecule, the viability, T/C [28] was 79.5%, the viability, T/C [29] was 75.5% and the viability, T/C [30] was 29.4%. For the same molecule, the viability, T/C [31] was 85.3%, the viability, T/C [32] was 117% and the viability, T/C [33] was 86%. The viability, T/C [34] was 90.5%, the viability, T/C [35] was 53.2% and the viability, T/C [36] was 30%.
Molecule `COc1ccc([C@@H](O)c2cc(-c3ncnc4cc(N5CCOCC5)ccc34)c(F)cc2Cl)nn1` + Nc1ccc(C#CCN(C(=O)Cc2ncc(C(F)(F)F)cc2C(F)(F)F)c2ccc(F)cc2)nn1 has an IC50 (second compound 0.0316 µM) of 5.34 µM, an IC50 (second compound 0.1 µM) of 4.8 µM and an IC50 (second compound 0.316 µM) of 6.69 µM. It also gave an IC50 (second compound 1 µM) of 5.15 µM, an IC50 (second compound 3.16 µM) of 4.04 µM and an IC50 (second compound 10 µM) of 2.96 µM. It also gave a viability, T/C [1] of 110%, a viability, T/C [2] of 96.3% and a viability, T/C [3] of 93.1%. It also gave a viability, T/C [4] of 88.9%, a viability, T/C [5] of 66.2% and a viability, T/C [6] of 30.4%. For the same molecule, the viability, T/C [7] was 105%, the viability, T/C [8] was 120% and the viability, T/C [9] was 91.1%. The viability, T/C [10] was 85.6%, the viability, T/C [11] was 59.2% and the viability, T/C [12] was 33.8%. For the same molecule, the viability, T/C [13] was 100%, the viability, T/C [14] was 105% and the viability, T/C [15] was 96.5%. The viability, T/C [16] was 98.2%, the viability, T/C [17] was 87.9% and the viability, T/C [18] was 29.5%. It also gave a viability, T/C [19] of 107%, a viability, T/C [20] of 101% and a viability, T/C [21] of 99.5%. The viability, T/C [22] was 93.7%, the viability, T/C [23] was 64.7% and the viability, T/C [24] was 29.6%. It also gave a viability, T/C [25] of 97.1%, a viability, T/C [26] of 102% and a viability, T/C [27] of 87.1%. It also gave a viability, T/C [28] of 94%, a viability, T/C [29] of 55.5% and a viability, T/C [30] of 29.5%. For the same molecule, the viability, T/C [31] was 99.9%, the viability, T/C [32] was 95.6% and the viability, T/C [33] was 95.4%. The viability, T/C [34] was 82.5%, the viability, T/C [35] was 48% and the viability, T/C [36] was 28.6%.

Reference: PubChem BioAssay AID1963828 (Molecular Pharmacology Branch, DTP, NCI, 2024)
